From publication PMC10423218, “Molecular mechanism underlying regulation of Arabidopsis CLCa transporter by nucleotides and phospholipids” (Nature Communications, 2023)
Changes are numbered by the printed parent chain.

Columns and labels:
[1] = target: T1, AtCLCa (Arabidopsis thaliana, UniProt P92941); experiment: cryo-EM structure, […] Å; format: binding; parameters: gene CLC-A; full-length, homodimer; structures: Pichia pastoris GS115, C-terminal GFP-6xHis tag cut by TEV, MSP1D1 nanodiscs; patch clamp: pKH3 vector in HEK293T; settings: Scen and Sint sites; 150 mM NaNO3, pH 8.0
T1 sequence (P92941 1-775): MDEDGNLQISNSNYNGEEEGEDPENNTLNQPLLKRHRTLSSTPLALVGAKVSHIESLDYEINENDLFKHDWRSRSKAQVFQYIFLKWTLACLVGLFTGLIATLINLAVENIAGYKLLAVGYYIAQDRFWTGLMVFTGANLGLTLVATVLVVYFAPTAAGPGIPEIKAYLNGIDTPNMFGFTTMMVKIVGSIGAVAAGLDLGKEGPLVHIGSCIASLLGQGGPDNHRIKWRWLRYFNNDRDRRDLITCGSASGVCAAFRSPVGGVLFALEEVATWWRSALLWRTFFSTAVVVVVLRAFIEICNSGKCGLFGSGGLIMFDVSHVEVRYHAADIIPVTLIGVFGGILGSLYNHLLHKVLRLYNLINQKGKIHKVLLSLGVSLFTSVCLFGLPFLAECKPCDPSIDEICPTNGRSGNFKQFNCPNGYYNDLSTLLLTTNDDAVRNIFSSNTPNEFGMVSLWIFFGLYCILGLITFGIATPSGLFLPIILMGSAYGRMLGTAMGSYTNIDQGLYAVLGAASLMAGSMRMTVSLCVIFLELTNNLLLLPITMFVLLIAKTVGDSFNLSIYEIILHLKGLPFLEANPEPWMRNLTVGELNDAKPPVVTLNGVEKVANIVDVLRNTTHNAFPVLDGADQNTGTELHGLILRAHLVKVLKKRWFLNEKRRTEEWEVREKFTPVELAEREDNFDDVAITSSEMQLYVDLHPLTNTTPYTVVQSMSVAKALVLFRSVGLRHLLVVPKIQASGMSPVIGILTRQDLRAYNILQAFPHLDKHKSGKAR

[2] = target: T2, AtCLCa (Arabidopsis thaliana, UniProt P92941, D753A); experiment: whole-cell patch clamp, HEK293T; format: cell-based; settings: 5 mM in pipette (cytosolic side); nitrate bath; pH 7.4
T2 construct: gene CLC-A; full-length, homodimer; structures: Pichia pastoris GS115, C-terminal GFP-6xHis tag cut by TEV, MSP1D1 nanodiscs; patch clamp: pKH3 vector in HEK293T
T2 sequence (P92941 1-775 D753A): T1 sequence (P92941 1-775) with D753A

[3] = target: T3, AtCLCa (Arabidopsis thaliana, UniProt P92941, E55A/S56A); experiment: whole-cell patch clamp, HEK293T; format: cell-based; settings: 5 mM in pipette (cytosolic side); nitrate bath; pH 7.4
T3 construct: gene CLC-A; full-length, homodimer; structures: Pichia pastoris GS115, C-terminal GFP-6xHis tag cut by TEV, MSP1D1 nanodiscs; patch clamp: pKH3 vector in HEK293T
T3 sequence (P92941 1-775 E55A/S56A): T1 sequence (P92941 1-775) with E55A, S56A

[4] = target: T4, AtCLCa ΔN53 mutant (Arabidopsis thaliana, UniProt P92941); experiment: whole-cell patch clamp, HEK293T; format: cell-based; settings: 5 mM in pipette (cytosolic side); nitrate bath; pH 7.4
T4 construct: gene CLC-A; N-terminal deletion ΔN53 (beta-hairpin residues 44-53 removed), homodimer, pKH3 vector in HEK293T
T4 sequence (P92941 54-775): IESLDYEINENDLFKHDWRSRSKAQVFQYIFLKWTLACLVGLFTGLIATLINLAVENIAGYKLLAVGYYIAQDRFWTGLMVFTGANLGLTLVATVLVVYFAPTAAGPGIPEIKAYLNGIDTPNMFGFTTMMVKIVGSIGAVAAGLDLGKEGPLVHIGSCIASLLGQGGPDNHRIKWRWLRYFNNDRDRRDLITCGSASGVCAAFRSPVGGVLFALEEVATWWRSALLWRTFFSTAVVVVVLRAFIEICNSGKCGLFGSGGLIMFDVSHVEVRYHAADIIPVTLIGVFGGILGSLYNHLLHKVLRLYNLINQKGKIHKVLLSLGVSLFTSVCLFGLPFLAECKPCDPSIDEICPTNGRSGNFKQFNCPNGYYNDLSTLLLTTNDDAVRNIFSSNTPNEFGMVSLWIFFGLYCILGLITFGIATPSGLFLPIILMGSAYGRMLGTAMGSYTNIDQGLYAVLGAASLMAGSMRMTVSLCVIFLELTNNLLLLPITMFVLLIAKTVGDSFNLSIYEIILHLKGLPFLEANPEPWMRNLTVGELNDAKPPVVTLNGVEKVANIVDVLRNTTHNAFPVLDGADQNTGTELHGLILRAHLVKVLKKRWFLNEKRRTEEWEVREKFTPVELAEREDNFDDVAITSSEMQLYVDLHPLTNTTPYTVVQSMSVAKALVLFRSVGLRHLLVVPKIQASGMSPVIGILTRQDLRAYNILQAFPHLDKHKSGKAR

[5] = target: T1, AtCLCa; experiment: whole-cell patch clamp, HEK293T; format: cell-based; parameters: gene CLC-A; full-length, homodimer; patch clamp: pKH3 vector in HEK293T; settings: 5 mM in pipette (cytosolic side); nitrate bath; pH 7.4; 5 mM MgCl2; room temperature
[6] = target: T5, AtCLCa ΔN44 mutant (Arabidopsis thaliana, UniProt P92941); experiment: whole-cell patch clamp, HEK293T; format: cell-based; settings: 5 mM in pipette (cytosolic side); nitrate bath; pH 7.4
T5 construct: gene CLC-A; N-terminal 44-residue deletion, beta-hairpin retained, homodimer, pKH3 vector in HEK293T
T5 sequence (P92941 45-775): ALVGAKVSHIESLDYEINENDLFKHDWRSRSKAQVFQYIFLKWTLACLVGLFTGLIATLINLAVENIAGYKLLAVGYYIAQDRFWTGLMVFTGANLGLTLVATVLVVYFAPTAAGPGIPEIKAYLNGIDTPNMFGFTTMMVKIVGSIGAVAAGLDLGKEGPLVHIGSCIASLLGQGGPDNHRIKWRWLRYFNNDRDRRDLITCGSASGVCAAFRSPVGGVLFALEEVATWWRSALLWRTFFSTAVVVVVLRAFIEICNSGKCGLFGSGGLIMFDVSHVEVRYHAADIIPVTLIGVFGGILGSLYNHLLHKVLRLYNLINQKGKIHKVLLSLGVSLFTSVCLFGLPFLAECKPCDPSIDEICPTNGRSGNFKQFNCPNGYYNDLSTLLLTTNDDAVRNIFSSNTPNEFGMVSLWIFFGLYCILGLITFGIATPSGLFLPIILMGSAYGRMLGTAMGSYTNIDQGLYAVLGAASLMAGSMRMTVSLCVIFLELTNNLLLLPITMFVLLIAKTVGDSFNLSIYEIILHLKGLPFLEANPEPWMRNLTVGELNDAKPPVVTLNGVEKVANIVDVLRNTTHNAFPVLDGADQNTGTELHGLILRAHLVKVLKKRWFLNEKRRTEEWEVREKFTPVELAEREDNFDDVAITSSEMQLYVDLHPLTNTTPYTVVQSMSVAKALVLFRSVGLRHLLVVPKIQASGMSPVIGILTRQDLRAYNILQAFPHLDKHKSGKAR

[7] = target: T1, AtCLCa; experiment: whole-cell patch clamp, HEK293T; format: cell-based; parameters: gene CLC-A; full-length, homodimer; patch clamp: pKH3 vector in HEK293T; settings: 5 mM in pipette (cytosolic side); nitrate bath; pH 7.4
[8] = target: T1, AtCLCa; experiment: whole-cell patch clamp, HEK293T; format: cell-based; parameters: gene CLC-A; full-length, homodimer; patch clamp: pKH3 vector in HEK293T; settings: pipette (cytosolic side); pH 7.4
[9] = target: the molecule itself; experiment: cryo-EM structure; AtCLCa in MSP1D1 nanodiscs with soybean polar lipid; 20 mM Tris pH 8.0 with 150 mM NaCl (AtCLCa-Cl-) or 150 mM NaNO3 (AtCLCa-NO3-); C2 symmetry applied

O=[N+]([O-])O [NO3^−]
cryo-EM structure, 3.2 Å [1]: Scen and Sint were found of fair densities, which likely corresponds to the bound NO3^−

Nc1ncnc2c1ncn2[C@@H]1O[C@H](COP(=O)(O)OP(=O)(O)OP(=O)(O)O)[C@@H](O)[C@H]1O [ATP]
inhibition of NO3^- currents at 5 mM [2]: D753A mutant impairs the inhibition of ATP | inhibition of NO3^- currents at 5 mM [3]: (E55A/S56A) can completely abolish the inhibitory effect of ATP | inhibition of NO3^- currents at 5 mM [4]: the NO3^− currents in ΔN53 mutant are not influenced by the addition of ATP | decrease of NO3^- currents at 5 mM [5]: led to a decrease of approximately half of the NO3^− currents induced by wild-type AtCLCa | inhibition of NO3^- currents at 5 mM [6]: exhibits similar inhibition pattern to wild-type AtCLCa upon ATP addition

Nc1ncnc2c1ncn2[C@@H]1O[C@H](COP(=O)(O)OP(=O)(O)O)[C@@H](O)[C@H]1O [ADP]
inhibition of NO3^- currents at 5 mM [7]: ADP produced a weak inhibition while AMP induced a negligible inhibition

Nc1ncnc2c1ncn2[C@@H]1O[C@H](COP(=O)(O)O)[C@@H](O)[C@H]1O [AMP]
inhibition of NO3^- currents at 5 mM [7]: ADP produced a weak inhibition while AMP induced a negligible inhibition

Nc1ncnc2c1ncn2[C@@H]1O[C@H](COP(=O)(O)OP(=O)(O)OP(O)(O)=S)[C@@H](O)[C@H]1O [ATP-γ-S]
inhibition of currents [8]: ATP-γ-S induced an inhibition comparable with ATP

B1: Arabidopsis thaliana CLCa (AtCLCa) transporter (natural protein, UniProt P92941 1-775, looked up)
chain: T1 sequence (P92941 1-775)
notes: Arabidopsis thaliana CLCa, Uniprot P92941, full-length gene; C-terminal GFP-6xHis tag was fused by a short linker with a TEV protease site and cut off with TEV; residues of the linker may be left; also called AtCLCa-Cl-; AtCLCa-NO3-; source: Pichia pastoris GS115, purified (anti-GFP nanobody resin, TEV digestion, SEC), reconstituted into MSP1D1 nanodiscs; not shown: GFP, C-terminal, cleaved; …
stoichiometry N [9]: 2
